Bridge positions count the residues as written; N and C are the ends.
Columns and labels:
M. catarrhalis [1] = assay type: cell-based, Moraxella catarrhalis
Experimental: (§1) Colonies of M. catarrhalis were grown on sheep blood agar plates for 12 h at 37°C and 5% CO2 before transfer to brain heart infusion (BHI) medium (Carl Roth, Karlsruhe, Germany) at an initial concentration of 1.6 × 10^7 cells/ml (OD600 = 0.08) as determined using an Ultraspec 10 cell densitometer (Amersham BioSciences, Little Chalfont, UK). Bacteria were cultivated in a shaking incubator at 37°C until the concentration reached 1.2 × 10^8 cells/ml (OD600 = 0.6) and then diluted to 2 × 10^6 cells/ml (OD600 = 0.011). To establish the optimal concentration ranges for AMP activity, defensin 1 was prepared as a two-fold dilution series from 12.5 µM to 1.56 µM and was added to the bacterial cultures, which were incubated as above for a further 16 h. Untreated cultures were used as controls. The OD600 was measured automatically at 30-min intervals using an Infinite M200 Pro plate reader (Tecan Life Sciences, Männedorf, Switzerland). […] They were cultivated for a further 15 h at 37°C and 5% CO2 in serial dilution before manual counting of the colonies on each plate.
Table S1. Detailed characterization of tested AMPs. M.c. were grown to an Optical Density (OD) 600nm of 0.6 in Brain Heart Infusion (BHI) Medium.
Upon dilution to OD600nm= 0.01, M.c. were incubated with declining amounts of indicated AMPs (25 μM to 0.048 μM at halving intervals) at 37°C with 5% CO2.
OD600nm was measured at 30 min intervals to establish the minimal inhibitory concentration (MIC). pI = isoelectric point, MW = molecular weight in kiloDalton.
MIC AMP name AMP class Organism Amino Acid Sequence pIMWPurity Retention time [min] modification
0.195 µM Cecropin A α-helical Hyalophora cecropia […] 10.75 4.00 91.06 7.30 n-term. amidation
0.39 µM Sarcotoxin IA α-helical Sarcophaga peregrina […] 11.07 4.16 91.37 9.37 n-term. amidation
~ 25µM Stomoxyn α-helical Stomoxys calcitrans […] 11.26 4.40 95.34 10.08 n-term. amidation
~ 25µM Spinigerin linear Pseudacanthotermes spiniger […] 11.07 3.00 96.23 12.45 none
>25µM Apidaecin Ia proline-rich Apis mellifera GNNRPVYIPQPRPPHPRI 11.71 2.11 92.98 16.91 none
>25µM Drosocin proline-rich Drosophila melanogaster GKPRPYSPRPTSHPRPIRV 12.01 2.20 92.86 11.65 none
>25µM Pyrrhocoricin proline-rich Pyrrhocoris apterus […] 10.27 2.34 93.17 11.38 none
>25 µM Metalnikowin-1 proline-rich Palomena prasina […] 9.98 1.84 92.85 13.36 none
>25 µM Metalnikowin-2A proline-rich Palomena prasina […] 9.98 1.84 92.39 10.85 none
>25 µM Metchnikowin-1 proline-rich Drosophila melanogaster […] 10.74 3.03 99.06 11.50 none
>25 µM Metchnikowin-2 proline-rich Drolophila melanogaster […] 11.54 3.04 97.16 11.46 none
12.5 µM Defensin 1 disulfide stabilized Tribolium castaneum […] 9.7 4.83 90.53 18.41 none
~ 25 µM Cecropin-like α-helical Lucilia sericata[…] 10.35 6.66 90.28 12.01 none
0.195 µM Cecropin α-helical Galleria mellonella […] 10.21 4.21 93.61 12.33 n-term. amidation
0.37 µM Cecropin α-helical Lucilia sericata […] 10.56 4.26 94.31 10.83 n-term. amidation
12.5 µM Stomoxyn α-helical Lucilia sericata […] 10.73 4.38 90.37 13.35n-term. amidation n-term.
1.56 µM Cecropin(Sarcotoxin) α-helical Eristalis tenax […] 10.56 4.14 90.80 9.76 none

M. catarrhalis [2] = experiment: AMP inhibitory testing without macrophages, dilution and plating (Figure S1); assay type: cell-based, Moraxella catarrhalis
Experimental: as §1

[3] = tested on: BDMs infected with M. catarrhalis; experiment: qRT-PCR of cytokine mRNA in infected BDMs; assay type: cell-based, human; settings: defensin 1 12.5 µM given 1 or 5 h after infection, MOI 0.5 or 1; collected 16 h post-infection
Experimental: BDMs were infected with M. catarrhalis as described above and the cells and supernatant were collected 16 h post-infection. Total RNA was isolated by phenol-chloroform extraction followed by reverse transcription using the High-Capacity RNA-to-cDNA kit (Thermo Fisher Scientific, Waltham, MA, USA). Quantitative real-time PCR (qRT-PCR) was performed with the following specific primer pairs to measure the expression of IL-1β (forward primer 5′-AGCTCGCCAGTGAAATGATGG-3′ and reverse primer 5′-CAGGTCCTGGAAGGAGCACTTC-3′), IL-8 (forward primer 5′-ACTGAGAGTGATTGAGAGTGGAC-3′ and reverse primer 5′-AACCCTCTGCACCCAGTTTTC-3′), and RPS18 (forward primer 5′-GCGGCGGAAAATAGCCTTTG-3′ and reverse primer 5′-GATCACACGTCCACCTCATC-3′).

BDMs activated by LPS = experiment: Sterile activation of BDMs by LPS; assay type: cell-based, human; settings: defensin 1 added 1 h after LPS
Experimental: The presence of cytokines in the BDM supernatant after infection and treatment with 12.5 µM defensin 1 was assessed using the MAGPIX Multiplex ELISA (Luminex, Austin, TX, USA). BDM supernatants were prepared as recommended for the MAGPIX system. The cytokine panel comprised MIP1-α, MCP1, IL-1β, IL-6, IL-8, IL-10, IL-12p70, IL-23, LAP and TNF-α.
Statistical interpretation of the multiplex ELISA data required the incorporation of data points outside the detection range and adjustments for the effect of parallel technical measurements from the same biological samples. We therefore used the Hodges and Lehmann nonparametric aligned ranks test to compare cytokine secretion by treatment time within treatment groups and between the following control and treatment groups: […]

macrophages = settings: cited from earlier work
Excerpt: Defensin 1 limited the expressio ...

[4] = tested on: commensal species (E. faecalis and E. coli); settings: previous study; cited from earlier work
Excerpt: We furthermore tested the effect of defensin 1 and sarcotoxin 1 C on the commensals E. faecalis and E. coli. Selectivity of AMPs may provide an important therapeutic advantage over broad-spectrum antibiotics because AMPs targeting pathogens but not commensals would avoid the common side effects of antibiotic therapy. […] Sarcotoxin 1 C was previously shown to inhibit 90% of clinical multidrug-resistant isolates of Ent ...

[5] = up to a concentration of 100 µM; cited from earlier work

H-VTCDLLSAEAKGVKVNHAACAAHCLLKRKRGGYCNKRRICVCRN-OH (disulfide 3-34, 20-40, 24-42 (inferred)) [Defensin 1]
MIC (minimal inhibitory concentration) (M. catarrhalis [1]; 12 h): 12.5 µM | concentration that completely abolished/inhibited the growth of M. catarrhalis (M. catarrhalis [1]; growth curve in BHI, two-fold dilution series, 37°C, 16 h, OD600 every 30 min): 12.5 µM | effect on bacterial growth upon dilution of the AMP by plating (M. catarrhalis [2]; defensin 1 12.5 µM or sarcotoxin 1 C 0.39 µM in BHI, diluted in PBS with 0.15% gelatin, plated on sheep blood agar, 15 h, Figure S1): efficiently killed the bacteria | bactericidal or bacteriostatic capacity (M. catarrhalis [2]; growth of M. catarrhalis after dilution of the AMP): bactericidal | IL-1β expression (mRNA, qRT-PCR) [3]: limited the expression | IL-8 expression (mRNA, qRT-PCR) [3]: limited the expression | sterile activation of BDMs by LPS in presence of peptide (BDMs activated by LPS): not significantly affected | toxicity toward macrophages (macrophages): nontoxic | effect against commensal species (E. faecalis, E. coli) [4]: no effect | hemolytic activity [5]: minimal hemolytic activity
